The values below come from ChEMBL document CHEMBL1641363, “Fragment-based discovery of 6-substituted isoquinolin-1-amine based ROCK-I inhibitors” (Bioorg Med Chem Lett, 2011).

The target of data set [1] is T1, cAMP-dependent protein kinase catalytic subunit PRKX (Homo sapiens) (UniProt P51817).
T1 sequence (whole entry): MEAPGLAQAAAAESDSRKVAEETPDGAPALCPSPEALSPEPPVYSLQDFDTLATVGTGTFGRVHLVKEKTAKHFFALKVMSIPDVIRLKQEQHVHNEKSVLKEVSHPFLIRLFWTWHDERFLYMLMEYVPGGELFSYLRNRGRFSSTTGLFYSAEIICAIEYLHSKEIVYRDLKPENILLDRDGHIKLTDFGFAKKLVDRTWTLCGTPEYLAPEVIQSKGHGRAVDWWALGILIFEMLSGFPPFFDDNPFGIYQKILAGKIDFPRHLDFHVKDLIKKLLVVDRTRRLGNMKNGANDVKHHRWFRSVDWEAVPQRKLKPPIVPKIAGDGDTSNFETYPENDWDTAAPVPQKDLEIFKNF
Particulars: 10 uM.
Description: Inhibition of PRKX at 10 uM

Data set [2] deals with Mitogen-activated protein kinase kinase kinase kinase 4 (Homo sapiens) (UniProt O95819). Particulars: 10 uM.
Description: Inhibition of HGK at 10 uM
A short description of data set [3]: Oral bioavailability in C57 mouse. Particulars: in vivo. The class given is ADME, organism-based.
Data set [4] can be described thus: Half life in mouse liver microsome. Particulars: liver microsomes. The class given is ADME.
For data set [5], the target named is Rho-associated protein kinase 2 (Homo sapiens, UniProt O75116). As to conditions: 10 uM.
Chain of Rho-associated protein kinase 2 (O75116 whole entry, looked up): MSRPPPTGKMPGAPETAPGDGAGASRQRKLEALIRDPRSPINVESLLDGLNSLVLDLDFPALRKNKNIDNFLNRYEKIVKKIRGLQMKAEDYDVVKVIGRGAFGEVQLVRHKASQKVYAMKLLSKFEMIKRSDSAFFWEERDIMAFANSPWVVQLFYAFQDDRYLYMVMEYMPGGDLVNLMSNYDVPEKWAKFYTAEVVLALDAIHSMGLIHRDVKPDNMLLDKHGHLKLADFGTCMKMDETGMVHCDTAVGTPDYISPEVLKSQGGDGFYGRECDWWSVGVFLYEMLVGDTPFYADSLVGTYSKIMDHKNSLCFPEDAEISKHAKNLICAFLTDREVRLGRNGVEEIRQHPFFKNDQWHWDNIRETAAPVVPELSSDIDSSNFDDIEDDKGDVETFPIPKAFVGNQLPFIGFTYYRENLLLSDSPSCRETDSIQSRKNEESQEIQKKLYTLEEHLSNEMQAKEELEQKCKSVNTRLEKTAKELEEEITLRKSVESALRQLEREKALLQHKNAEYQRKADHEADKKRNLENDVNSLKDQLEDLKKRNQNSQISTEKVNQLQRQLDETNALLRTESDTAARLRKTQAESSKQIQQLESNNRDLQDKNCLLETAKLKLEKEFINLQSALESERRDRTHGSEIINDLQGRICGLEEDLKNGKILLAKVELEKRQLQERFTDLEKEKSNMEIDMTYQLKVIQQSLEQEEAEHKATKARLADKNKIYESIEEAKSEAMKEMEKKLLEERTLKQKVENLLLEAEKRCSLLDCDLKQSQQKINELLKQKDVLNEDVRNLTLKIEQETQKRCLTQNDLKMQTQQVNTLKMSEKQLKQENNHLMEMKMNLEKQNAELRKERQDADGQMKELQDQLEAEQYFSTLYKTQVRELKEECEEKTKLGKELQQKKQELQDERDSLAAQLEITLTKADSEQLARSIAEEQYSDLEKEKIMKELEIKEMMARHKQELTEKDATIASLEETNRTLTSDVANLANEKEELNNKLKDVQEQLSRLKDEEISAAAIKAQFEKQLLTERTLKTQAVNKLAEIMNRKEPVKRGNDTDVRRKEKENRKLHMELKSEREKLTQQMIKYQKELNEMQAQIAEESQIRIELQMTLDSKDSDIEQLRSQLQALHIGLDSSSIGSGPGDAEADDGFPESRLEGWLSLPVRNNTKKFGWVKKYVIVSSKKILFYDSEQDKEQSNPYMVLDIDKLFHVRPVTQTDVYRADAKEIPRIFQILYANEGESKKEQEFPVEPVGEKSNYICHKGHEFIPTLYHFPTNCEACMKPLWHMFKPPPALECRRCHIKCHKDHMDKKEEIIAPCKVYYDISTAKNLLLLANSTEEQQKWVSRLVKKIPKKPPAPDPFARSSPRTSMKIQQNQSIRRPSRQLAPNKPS
Description: Inhibition of ROCK2 at 10 uM
Data set [6] can be described thus: Plasma clearance in C57 mouse. The class given is ADME, organism-based.
In data set [7] the target is Proto-oncogene tyrosine-protein kinase receptor Ret (Homo sapiens) (UniProt P07949). Particulars: 10 uM.
Chain of Proto-oncogene tyrosine-protein kinase receptor Ret (Homo sapiens) (P07949 whole entry): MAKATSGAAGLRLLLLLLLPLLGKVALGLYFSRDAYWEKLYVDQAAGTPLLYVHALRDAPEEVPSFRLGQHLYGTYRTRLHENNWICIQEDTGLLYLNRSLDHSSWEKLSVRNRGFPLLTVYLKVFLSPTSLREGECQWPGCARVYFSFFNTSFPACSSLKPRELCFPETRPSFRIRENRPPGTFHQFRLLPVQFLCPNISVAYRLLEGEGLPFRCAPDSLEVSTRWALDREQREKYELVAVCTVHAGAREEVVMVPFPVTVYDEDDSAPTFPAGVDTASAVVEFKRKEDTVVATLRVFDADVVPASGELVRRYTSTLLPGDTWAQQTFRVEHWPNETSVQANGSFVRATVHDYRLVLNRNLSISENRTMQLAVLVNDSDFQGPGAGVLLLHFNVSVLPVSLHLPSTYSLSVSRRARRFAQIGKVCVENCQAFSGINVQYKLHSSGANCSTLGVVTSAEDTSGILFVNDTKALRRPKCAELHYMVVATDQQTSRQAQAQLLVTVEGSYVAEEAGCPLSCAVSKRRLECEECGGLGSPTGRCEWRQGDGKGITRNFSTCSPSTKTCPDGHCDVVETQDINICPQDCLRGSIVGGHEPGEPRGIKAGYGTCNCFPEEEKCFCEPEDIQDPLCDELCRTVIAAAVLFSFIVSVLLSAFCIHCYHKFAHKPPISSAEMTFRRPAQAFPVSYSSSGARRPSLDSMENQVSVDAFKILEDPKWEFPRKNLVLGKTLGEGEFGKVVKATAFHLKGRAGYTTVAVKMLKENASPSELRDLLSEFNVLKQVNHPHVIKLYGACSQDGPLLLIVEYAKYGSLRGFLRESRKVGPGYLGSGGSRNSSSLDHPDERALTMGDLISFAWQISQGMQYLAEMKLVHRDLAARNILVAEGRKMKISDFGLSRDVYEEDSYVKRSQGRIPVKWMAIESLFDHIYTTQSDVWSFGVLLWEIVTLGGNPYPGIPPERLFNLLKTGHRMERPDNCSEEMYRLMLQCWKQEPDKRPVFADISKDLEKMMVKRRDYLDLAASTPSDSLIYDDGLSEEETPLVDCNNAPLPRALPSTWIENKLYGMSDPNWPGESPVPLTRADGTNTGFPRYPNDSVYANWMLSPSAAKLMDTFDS
Description: Inhibition of RET at 10 uM
The target of data set [8] is Platelet-derived growth factor receptor alpha (Homo sapiens) (UniProt P16234). As to conditions: 10 uM.
Description: Inhibition of PDGFRA at 10 uM
Data set [9] is described as follows: Volume of distribution at steady state in C57 mouse. As to conditions: in vivo, read-out: Vdss. The class given is ADME, organism-based.
Data set [10] has as its target T2, Tyrosine-protein kinase receptor TYRO3 (Homo sapiens) (UniProt Q06418).
T2 sequence (whole entry): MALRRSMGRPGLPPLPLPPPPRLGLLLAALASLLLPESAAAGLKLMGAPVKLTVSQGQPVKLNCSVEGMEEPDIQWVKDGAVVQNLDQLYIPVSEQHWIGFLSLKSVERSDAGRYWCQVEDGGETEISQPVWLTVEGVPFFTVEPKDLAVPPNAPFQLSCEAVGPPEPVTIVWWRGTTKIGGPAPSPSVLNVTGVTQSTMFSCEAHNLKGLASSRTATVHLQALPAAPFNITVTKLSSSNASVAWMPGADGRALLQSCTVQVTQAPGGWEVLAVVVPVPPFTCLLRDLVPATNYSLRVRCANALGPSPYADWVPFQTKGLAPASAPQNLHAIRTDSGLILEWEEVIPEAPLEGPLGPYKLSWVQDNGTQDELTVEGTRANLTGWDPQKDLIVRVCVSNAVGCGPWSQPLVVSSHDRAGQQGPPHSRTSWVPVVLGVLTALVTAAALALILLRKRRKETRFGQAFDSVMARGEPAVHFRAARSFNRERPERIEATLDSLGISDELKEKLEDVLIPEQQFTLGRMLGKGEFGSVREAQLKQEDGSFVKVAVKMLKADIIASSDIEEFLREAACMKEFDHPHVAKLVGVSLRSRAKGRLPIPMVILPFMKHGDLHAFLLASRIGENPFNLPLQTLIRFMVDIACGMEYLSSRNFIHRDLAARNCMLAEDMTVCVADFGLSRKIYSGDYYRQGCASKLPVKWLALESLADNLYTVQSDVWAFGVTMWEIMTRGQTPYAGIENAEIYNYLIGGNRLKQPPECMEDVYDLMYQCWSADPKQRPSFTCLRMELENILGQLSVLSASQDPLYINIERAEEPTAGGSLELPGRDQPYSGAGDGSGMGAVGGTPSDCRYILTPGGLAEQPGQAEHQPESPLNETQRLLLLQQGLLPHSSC
As to conditions: 10 uM.
Description: Inhibition of RSE at 10 uM

The target in data set [11] is Voltage-gated inwardly rectifying potassium channel KCNH2 (Homo sapiens, UniProt Q12809). Briefly: Displacement of [3H]dofetilide from human ERG.
Data set [12] in a line: Half life in human liver microsome. The class given is ADME. As to conditions: liver microsomes.
The target of data set [13] is Serine/threonine-protein kinase SIK2 (Homo sapiens) (UniProt Q9H0K1). Particulars: 10 uM.
Description: Inhibition of SNFILK2 at 10 uM
Data set [14] has as its target Rho-associated protein kinase 1 (Homo sapiens, UniProt Q13464). Particulars: 10 uM.
Description: Inhibition of ROCK1 at 10 uM
Data set [15] deals with Serine/threonine-protein kinase PLK3 (Homo sapiens) (UniProt Q9H4B4). Particulars: 10 uM.
Chain of Serine/threonine-protein kinase PLK3 (Homo sapiens) (Q9H4B4 whole entry, looked up): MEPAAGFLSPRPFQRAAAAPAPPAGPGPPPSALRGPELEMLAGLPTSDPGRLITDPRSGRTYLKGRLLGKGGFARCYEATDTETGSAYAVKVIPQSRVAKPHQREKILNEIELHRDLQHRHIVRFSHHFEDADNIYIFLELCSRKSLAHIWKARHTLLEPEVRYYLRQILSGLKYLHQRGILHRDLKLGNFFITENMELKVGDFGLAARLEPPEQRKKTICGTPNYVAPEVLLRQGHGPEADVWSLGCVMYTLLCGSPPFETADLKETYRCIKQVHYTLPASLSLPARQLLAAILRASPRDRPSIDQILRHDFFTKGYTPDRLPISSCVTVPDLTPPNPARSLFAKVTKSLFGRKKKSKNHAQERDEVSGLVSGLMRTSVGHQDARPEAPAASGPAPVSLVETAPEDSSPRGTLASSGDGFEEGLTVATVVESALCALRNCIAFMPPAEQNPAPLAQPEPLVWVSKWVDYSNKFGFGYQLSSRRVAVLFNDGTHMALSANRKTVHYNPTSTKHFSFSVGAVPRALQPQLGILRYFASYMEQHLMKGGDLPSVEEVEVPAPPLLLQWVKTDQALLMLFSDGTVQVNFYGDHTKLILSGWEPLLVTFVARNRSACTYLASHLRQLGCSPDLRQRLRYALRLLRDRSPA
Description: Inhibition of PLK3 at 10 uM
The target of data set [16] is T3, Serine/threonine-protein kinase D2 (Homo sapiens) (UniProt Q9BZL6).
T3 sequence (whole entry): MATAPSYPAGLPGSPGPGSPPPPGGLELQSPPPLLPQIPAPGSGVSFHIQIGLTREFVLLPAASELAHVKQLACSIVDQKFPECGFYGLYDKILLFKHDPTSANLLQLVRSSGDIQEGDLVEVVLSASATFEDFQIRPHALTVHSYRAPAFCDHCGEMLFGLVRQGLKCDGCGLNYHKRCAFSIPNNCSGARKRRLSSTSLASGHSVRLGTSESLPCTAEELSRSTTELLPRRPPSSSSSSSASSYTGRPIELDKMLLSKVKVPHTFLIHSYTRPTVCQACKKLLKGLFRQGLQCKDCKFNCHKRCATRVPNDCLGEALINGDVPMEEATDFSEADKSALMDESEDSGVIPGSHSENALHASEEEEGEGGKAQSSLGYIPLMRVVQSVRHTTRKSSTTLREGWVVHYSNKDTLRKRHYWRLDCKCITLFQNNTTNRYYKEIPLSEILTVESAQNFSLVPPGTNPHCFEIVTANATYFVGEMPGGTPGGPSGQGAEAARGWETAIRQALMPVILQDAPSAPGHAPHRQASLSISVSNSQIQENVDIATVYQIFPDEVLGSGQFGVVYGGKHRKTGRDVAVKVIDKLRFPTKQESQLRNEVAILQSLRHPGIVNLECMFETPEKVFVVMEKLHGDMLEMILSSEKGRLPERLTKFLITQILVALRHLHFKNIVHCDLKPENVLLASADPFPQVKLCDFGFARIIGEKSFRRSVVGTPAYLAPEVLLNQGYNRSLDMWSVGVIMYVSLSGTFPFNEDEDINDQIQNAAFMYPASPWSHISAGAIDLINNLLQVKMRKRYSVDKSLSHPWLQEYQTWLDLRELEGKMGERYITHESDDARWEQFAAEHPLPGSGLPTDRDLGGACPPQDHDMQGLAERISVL
As to conditions: 10 uM.
Description: Inhibition of PKD at 10 uM

A short description of data set [17]: Half life in C57 mouse. As to conditions: in vivo. The class given is ADME, organism-based.
Data set [18] in a line: Permeability from basolateral to apical side of human Caco2 cells. The class given is ADME, cell-based. As to conditions: Caco-2, read-out: permeability.
Data set [19] has as its target Angiopoietin-1 receptor (Homo sapiens) (UniProt Q02763). Particulars: 10 uM.
Description: Inhibition of Tie2 at 10 uM
Data set [20] in a line: Half life in rat hepatocyte. The class given is ADME, cell-based, Liver. Particulars: hepatocytes.

Chain of Rho-associated protein kinase 1 (Q13464 2-1354 limits assumed): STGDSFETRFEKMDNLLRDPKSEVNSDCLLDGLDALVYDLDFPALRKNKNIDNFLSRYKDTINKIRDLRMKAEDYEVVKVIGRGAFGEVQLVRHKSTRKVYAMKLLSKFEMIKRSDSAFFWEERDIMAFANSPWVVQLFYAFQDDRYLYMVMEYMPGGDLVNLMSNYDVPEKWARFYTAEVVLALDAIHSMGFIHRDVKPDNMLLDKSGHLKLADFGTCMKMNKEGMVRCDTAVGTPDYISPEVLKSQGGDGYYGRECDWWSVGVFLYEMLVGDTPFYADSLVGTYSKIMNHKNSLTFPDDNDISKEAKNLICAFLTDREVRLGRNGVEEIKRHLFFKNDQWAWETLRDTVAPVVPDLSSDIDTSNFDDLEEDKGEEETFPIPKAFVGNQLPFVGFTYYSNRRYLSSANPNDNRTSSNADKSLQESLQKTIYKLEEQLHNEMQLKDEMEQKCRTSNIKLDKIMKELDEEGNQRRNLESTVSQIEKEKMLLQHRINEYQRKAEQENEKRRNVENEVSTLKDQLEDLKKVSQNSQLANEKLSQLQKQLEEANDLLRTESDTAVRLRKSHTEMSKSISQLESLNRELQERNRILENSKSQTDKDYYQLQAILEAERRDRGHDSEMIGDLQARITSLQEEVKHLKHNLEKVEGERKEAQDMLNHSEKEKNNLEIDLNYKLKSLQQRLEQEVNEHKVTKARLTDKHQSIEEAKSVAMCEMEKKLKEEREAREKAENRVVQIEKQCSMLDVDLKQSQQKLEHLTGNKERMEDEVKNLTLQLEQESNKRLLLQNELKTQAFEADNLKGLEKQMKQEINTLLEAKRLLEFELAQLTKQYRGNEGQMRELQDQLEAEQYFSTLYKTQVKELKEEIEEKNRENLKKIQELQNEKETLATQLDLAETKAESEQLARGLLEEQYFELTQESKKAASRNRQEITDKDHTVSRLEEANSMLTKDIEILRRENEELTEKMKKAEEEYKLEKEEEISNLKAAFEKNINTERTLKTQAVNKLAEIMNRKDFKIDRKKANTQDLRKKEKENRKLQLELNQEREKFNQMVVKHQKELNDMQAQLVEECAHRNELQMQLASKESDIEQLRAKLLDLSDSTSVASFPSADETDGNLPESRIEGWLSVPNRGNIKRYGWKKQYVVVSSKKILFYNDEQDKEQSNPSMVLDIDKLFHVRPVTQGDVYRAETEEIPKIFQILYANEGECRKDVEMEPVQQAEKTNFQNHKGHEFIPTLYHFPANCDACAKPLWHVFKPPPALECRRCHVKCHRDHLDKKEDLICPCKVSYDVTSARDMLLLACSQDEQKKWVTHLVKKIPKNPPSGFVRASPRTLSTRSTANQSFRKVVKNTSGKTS

Turning to `Nc1nccc2cc(O[C@H]3CCCNC3)ccc12`, the inhibition in data set [1], in data set [2], in data set [5], in data set [7], in [8] and in data set [10] was more than 80% in each case. For the same molecule, the inhibition in [13], in data set [14], in data set [15], in [16] and in [19] was more than 80% in each case. The same molecule returned a bioavailability in [3] of more than 75%. The half-life in [4] was more than 2 h; in data set [12], more than 2 h; in data set [17] it was 5.8 h; in data set [20], 1.17 h. Further, in [6], the clearance stood at 9.5 mL/min/kg. The Vd in data set [9] was determined as 11 L/kg. The same molecule showed a Ki in data set [11] of 20 µM. In data set [18], the Papp B→A turned out to be 3.6 ×10⁻⁶ cm/s.
